According to patent publication US10537610B1, “Peptide for inhibition of cancer” (priority 2018, dated 2020):
Non-standard residues stand in square brackets, D forms with d. Residues, ends and D or L forms follow the SMILES beside them.

Key:
Assay type in all cases: cell-based, human
[1] = tested on: breast cancer cells (MCF-7, MDA-MB-231) across HMEC-1 monolayer; assay: Transmigration (TEM) of breast cancer cells across the endothelial monolayer
Description: (§1) The peptides were synthesized and purified by LifeTein, LLC (Somerset, N.J., USA) with the purity of not less than 95% using PeptideSyn™ technology that incorporates solid phase fluorenylmethyloxycarbonyl (Fmoc) chemistry. The cells were treated with the peptide P4D for 0, 1, 5, or 24 hours at a concentration of 500 μM. The cells treated with the Scrambled peptide P4D (Scr; 500 μM; 0, 1, 5, or 24 hours incubation time) were used as a negative control. In order to provide the positive control of the junctions tightening for impedance-based measurements of endothelial permeability, the cells were incubated with the potent activator of TJ assembly, forskolin (FSK; BioShop, Burlington, ON, Canada), for 24 hours at a concentration of 10 μM.
HMEC-1 endothelial cells were cultured in fibronectin-coated Transwell units with polycarbonate filter and 8 μm pores (Costar, Corning, N.Y., USA) in 24-well plates for 2 days at 37° C. to form a confluent monolayer. Human breast cancer (MCF-7, MDA-MB-231) or non-tumorigenic (MCF-10A) human breast cells were starved overnight and labeled with the green fluorescent marker CellTracker Green CMFDA Dye (Molecular Probes, Eugene, Oreg., USA). An aliquot (1×10^5/well) of fluorescent breast cancer cells in serum-free medium was added in the top of the Transwell chamber, whereas the conditioned medium was used as a chemoattractant in the lower compartment. Non-tumorigenic human breast cell line MCF-10A was used as control. The wells containing the serum-free medium in the lower compartment were used to estimate the background migration. The breast cancer cells were allowed to migrate across the endothelial monolayer for 6 hours in a humidified incubator (temperature of 37° C. and 5% CO2 atmosphere) with or without the previously specified factors or with their combinations.
At the end of the transmigration assay, non-migrated cells were gently wiped out from the inner surface of the membrane with cosmetic cotton swab. The assay was documented at 200× magnification (10× eyepiece and 20× objective) with fluorescent inverted microscope Axio Vert.A1 (Zeiss, Oberkochen, Germany) and high-performance CMOS 2.3-MP AxioCam 702 mono digital camera (Zeiss) controlled by ZEN software, version 2.3 (Zeiss). The migrated cells (five randomly chosen fields of each well) were counted using the Cell Counter tool of the ImageJ software. Cell migration towards serum-free medium was treated as background and subtracted from the corresponding numbers of cells migrated towards conditioned medium.

[2] = tested on: MCF-10A cells across HMEC-1 monolayer; assay: Transmigration (TEM) of MCF-10A cells across the endothelial monolayer
Description: as §1
HMEC-1 endothelial cells were cultured in fibronectin-coated Transwell units with polycarbonate filter and 8 μm pores (Costar, Corning, N.Y., USA) in 24-well plates for 2 days at 37° C. to form a confluent monolayer. […]
At the end of the transmigration assay, non-migrated cells were gently wiped out from the inner surface of the membrane with cosmetic cotton swab. […] The migrated cells (five randomly chosen fields of each well) were counted using the Cell Counter tool of the ImageJ software. […]

JAM-A mRNA = assay: RT-PCR of JAM-A mRNA in HMEC-1 cells; conditions: Tβ4 200 nM or TGF-β1 10 ng/mL
[3] = tested on: HMEC-1 endothelial monolayer; assay: Macromolecular permeability of endothelial monolayer (FITC-dextran tracer assay)
Description: Macromolecular permeability of endothelial monolayer was analyzed by macromolecular tracer assay. HMEC-1 cells were grown in Transwell inserts with polyethylene terephthalate (PET) filters and 0.4-μm pores (Falcon, cat. #353095) in 24-well plates (Falcon, cat. #351147) at 1.5×10^5 cells/insert and immediately treated with P4D peptide (P4D) or with Scrambled P4D peptide (Scr) at a concentration of 500 μM (the samples indicated as 0 hours of incubation). Non-treated cells served as a control sample (Ctrl). Moreover, HMEC-1 cells were treated with P4D peptide at the following periods of time after seeding: 1 hour, 5 hours and 24 hours. One hour after the last treatment with P4D (24 hours) FITC-dextran with a molecular weight of 40 kDa was added into the inserts and the culture medium from the wells was replaced with PBS. After 1 hour incubation in darkness in a humidified incubator with the temperature of 37° C. and 5% CO2 atmosphere, the PBS from the wells (outside the inserts) was transferred into the wells of a black 96-well plate and the fluorescence was measured using the Wallac 1420 VICTOR2 Multilabel Counter (PerkinElmer, Waltham, Mass., USA) at 492 nm of excitation and 517 nm of emission wavelengths.

[4] = tested on: breast cancer cells (MCF-7, MDA-MB-231) on HMEC-1 cells; assay: Adhesion of breast cancer cells to endothelial monolayer under static conditions; conditions: P4D 500 μM
Description: as §1
Adhesion of human breast cancer (MCF-7, MDA-MB-231) or non-tumorigenic (MCF-10A) human breast cells to HMEC-1 cells was performed in 24-well plates. HMEC-1 cells were seeded to the bottom of the fibronectin-coated wells 2 days before the assay to form the monolayer and subjected to a suitable treatment. Breast cancer or non-tumorigenic cells were starved overnight and on the day of the assay were labeled with CellTracker Green CMFDA Dye for 30 minutes. […] The adherent cells were lysed by 2% SDS and the fluorescence was measured using the Wallac 1420 VICTOR2 Multilabel Counter (PerkinElmer) at 492 nm of excitation and 517 nm of emission wavelengths.

Compound | transmigration of MCF-7 and MDA-MB-231 across HMEC-1 monolayer, effect of Tβ4 ([1]; Tβ4 200 nM, 24 hours, vs. CTRL (non-treated) cells) | TEM of MCF-10A cells, effect of Tβ4 ([2]; Tβ4 200 nM, 24 hours, in the presence of the Scr peptide) | JAM-A expression on mRNA level (JAM-A mRNA) | effect on preexisting tight junctions (FITC-dextran flux) ([3]; P4D 500 μM applied 1, 5 or 24 hours after seeding) | transendothelial flux of 40-kDa FITC-dextran ([3]; P4D 500 μM applied immediately after the cells were seeded (0 hours)) | transmigration of breast cancer cells across cytokine-activated endothelial monolayer ([1]; P4D 500 μM, HMEC-1 preincubated with TNF/IFN) | Tβ4-activated TEM ([1]; P4D 500 μM, HMEC-1 preincubated with Tβ4 200 nM for 24 hours, all tested MECs (MCF-7, MDA-MB-231, MCF-10A)) | degree of TEM inhibition, MCF-7 cells compared with other MECs ([1]; P4D 500 μM, inflamed endothelium) | transmigration of MCF-10A cells across cytokine-treated endothelium ([2]; P4D 500 μM, TNF/IFN-treated HMEC-1) | adhesion of MECs to inflamed endothelial monolayer ([4]; HMEC-1 preincubated with TNF-α 10 ng/ml and IFN-γ 20 ng/ml for 24 hours) | extent of adhesion inhibition, MDA-MB-231 cells compared with other MECs ([4]; cytokine-inflamed HMEC-1)
Thymosin β4 (SDKPDMAEIEKFDKSKLKKTETQEKNPLPSKETIEQEKQAGES; not fully specified; Thymosin beta-4; UniProt P62328 2-44, looked up) [Tβ4] | slightly stimulated | significantly elevated the TEM of MCF-10A cells | no observed changes of JAM-A expression on mRNA level | – | – | – | – | – | – | – | –
CC(C)[C@H](NC(=O)[C@H](CO)NC(=O)[C@H](N)CCCCN)C(=O)N[C@H](C(=O)N[C@H](CCCNC(=N)N)C(=O)N[C@@H](CCC(=O)O)C(=O)N[C@@H](CC(=O)O)C(=O)N[C@H](C(=O)NCC(=O)N[C@H](C(=O)N[C@@H](Cc1ccc(O)cc1)C(=O)N[C@H](C(=O)N[C@@H](CS)C(N)=O)[C@@H](C)O)[C@@H](C)O)[C@@H](C)O)[C@@H](C)O [Peptide P4D, NH2-(dK)-SVT-(dR)-EDTGTYTC-CONH2] (H-[dK]SVT[dR]EDTGTYTC-NH2) | – | – | – | did not disrupt the preexisting ones | elevated | hindered | abrogated the Tβ4-activated TEM | highest degree of TEM inhibition | markedly inhibited | restrained the adhesion of MECs to the inflamed endothelial monolayer | most pronounced
